The source of these data is patent US9000025B2, “Autotaxin inhibitors and uses thereof” (Amira Pharmaceuticals, Inc., priority 2010, dated 2015).

This assay addresses T1, autotaxin (ATX) (Homo sapiens, UniProt Q13822).
T1 construct: conditioned medium from the human melanoma cell line, MDA-MB-4355, which endogenously expresses autotaxin; host or cells: MDA-MB-435S human melanoma cells; serum-free conditioned medium, concentrated 20-fold
Put plainly: Native Autotaxin Choline Release Assay. The assay is classed as biochemical. The note with it: autotaxin in conditioned medium from human melanoma cell line; choline released from LPC; read-out: MDA-MB-435S Assay IC50. An outline of the steps:
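Native ATX from conditioned serum-free, phenol-red-free DMEM of confluent cells cultured 48 h; LPC as substrate. Released choline detected with choline oxidase/peroxidase/4-aminoantipyrine colour mix in 50 mM Tris pH 8, 10 min at 37 °C, absorbance 555 nm; choline quantified against standard curve, equated to LPA formed.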

Bounds are passed on as bounds.

Broadly, the IC50 is the concentration needed to halve the response being measured. For the compound `Cc1nn(C)cc1-n1c(C)c(Sc2cccc(C(=O)O)c2)c2ccc(Cl)cc21` [Compound 1-60, 3-[6-Chloro-1-(1,3-dimethyl-1H-pyrazol-4-yl)-2-methyl-1H-indol-3-ylsulfanyl]-benzoic acid], the IC50 is below 300 nM. As for `CCn1cc(-n2c(C)c(Sc3cccc(CC(=O)O)c3F)c3ccc(Cl)c(F)c32)cn1` [Compound 4-15, {3-[6-Chloro-1-(1-ethyl-1H-pyrazol-4-yl)-7-fluoro-2-methyl-1H-indol-3-ylsulfanyl]-2-fluoro-phenyl}-acetic acid], the figure is below 300 nM; as for `Cc1c(Sc2ccc(CC(=O)O)cc2)c2ccc(Cl)cc2n1C` [Compound 3-11, [4-(6-Chloro-1,2-dimethyl-1H-indol-3-ylsulfanyl)-phenyl]-acetic acid], above 1000 nM; as for `Cc1c(Sc2cc(F)cc(C(=O)O)c2)c2ccc(Cl)c(F)c2n1-c1cnn(C(C)C)c1` [Compound 4-6, 3-[6-Chloro-7-fluoro-1-(1-isopropyl-1H-pyrazol-4-yl)-2-methyl-1H-indol-3-ylsulfanyl]-5-fluoro-benzoic acid], below 300 nM. Then `Cc1c(Sc2cccc(CC(=O)O)c2)c2ccc(Cl)cc2n1CC(C)C` [Compound 1-7, [3-(6-Chloro-1-isobutyl-2-methyl-1H-indol-3-ylsulfanyl)-phenyl]-acetic acid], with above 1000 nM. Then `CCn1cc(-n2c(C)c(Sc3ccc(CC(=O)O)cc3)c3ccc(Cl)cc32)cn1` [Compound 3-30, {4-[6-Chloro-1-(1-ethyl-1H-pyrazol-4-yl)-2-methyl-1H-indol-3-ylsulfanyl]-phenyl}-acetic acid], with below 300 nM; and `Cc1c(Sc2cccc(CC(=O)O)c2)c2ccc(Cl)cc2n1-c1cnn(C)c1` [Compound 1-45, {3-[6-Chloro-2-methyl-1-(1-methyl-1H-pyrazol-4-yl)-1H-indol-3-ylsulfanyl]-phenyl}-acetic acid], with below 300 nM. As to `CCc1cncc(-n2c(C)c(Sc3cccc(C(=O)O)c3)c3ccc(Cl)c(F)c32)c1` [Compound 3-25, 3-[6-Chloro-1-(5-ethyl-pyridin-3-yl)-7-fluoro-2-methyl-1H-indol-3-ylsulfanyl]-benzoic acid], the half-maximal inhibitory concentration (IC50) was below 300 nM. As for `CCCn1cc(-n2c(C)c(Sc3cccc(CC(=O)NS(=O)(=O)C4CC4)c3)c3ccc(Cl)cc32)cn1` [Compound 3-54, cyclopropanesulfonic acid (2-{3-[6-chloro-2-methyl-1-(1-propyl-1H-pyrazol-4-yl)-1H-indol-3-ylsulfanyl]-phenyl}-acetyl)-amide], the figure is below 300 nM; as for `Cc1[nH]c2ccccc2c1Sc1cccc(CC(=O)O)c1` [Compound 1-1, [3-(2-Methyl-1H-indol-3-ylsulfanyl)-phenyl]-acetic acid], above 1000 nM; as for `CCCn1cc(-n2c(C)c(Sc3ccc(OC)c(C(=O)O)c3)c3ccc(Cl)c(F)c32)cn1` [Compound 4-10, 5-[6-Chloro-7-fluoro-2-methyl-1-(1-propyl-1H-pyrazol-4-yl)-1H-indol-3-ylsulfanyl]-2-methoxy-benzoic acid], below 300 nM. Then `CCn1cc(-n2c(C)c(Sc3cccc(C(=O)O)c3F)c3c(F)cc(Cl)cc32)cn1` [Compound 4-11, 3-[6-Chloro-1-(1-ethyl-1H-pyrazol-4-yl)-4-fluoro-2-methyl-1H-indol-3-ylsulfanyl]-2-fluoro-benzoic acid], with below 300 nM.

Take `Cc1c(Sc2cccc(C(=O)O)c2)c2ccc(Cl)c(F)c2n1-c1cn[nH]c1` [Compound 3-49, 3-[6-Chloro-7-fluoro-2-methyl-1-(1H-pyrazol-4-yl)-1H-indol-3-ylsulfanyl]-benzoic acid]: the IC50 is below 300 nM.

Regarding `Cc1c(Sc2cccc(C(=O)O)c2)c2ccc(Cl)cc2n1Cc1ccc2ccccc2c1` [Compound 1-20, 3-(6-Chloro-2-methyl-1-naphthalen-2-ylmethyl-1H-indol-3-ylsulfanyl)-benzoic acid], the half-maximal inhibitory concentration (IC50) was above 1000 nM.

On to `Cc1c(Sc2cccc(C(=O)O)c2)c2ccc(Cl)c(F)c2n1-c1cnn(C2CCCC2)c1` [Compound 3-35, 3-[6-Chloro-1-(1-cyclopentyl-1H-pyrazol-4-yl)-7-fluoro-2-methyl-1H-indol-3-ylsulfanyl]-benzoic acid], for which the half-inhibitory concentration (IC50) was below 300 nM. Regarding `Cc1ccc(C(=O)O)cc1Sc1c(C)n(-c2cccnc2)c2cc(Cl)ccc12` [Compound 1-54, 3-(6-Chloro-2-methyl-1-pyridin-3-yl-1H-indol-3-ylsulfanyl)-4-methyl-benzoic acid], the IC50 is above 1000 nM.

For the compound `Cc1c(Sc2cccc(C(=O)O)c2)c2ccc(Cl)cc2n1-c1ccc(C(F)(F)F)nc1` [Compound 1-32, 3-[6-Chloro-2-methyl-1-(6-trifluoromethyl-pyridin-3-yl)-1H-indol-3-ylsulfanyl]-benzoic acid], the IC50 was 300 to 1000 nM.

In the case of `Cc1ccc(-n2cc(-n3c(C)c(Sc4cccc(C(=O)O)c4)c4ccc(Cl)c(F)c43)cn2)cc1` [Compound 3-32, 3-[6-Chloro-7-fluoro-2-methyl-1-(1-p-tolyl-1H-pyrazol-4-yl)-1H-indol-3-ylsulfanyl]-benzoic acid], the IC50 was below 300 nM. As to `Cc1ccc(-n2c(C)c(Sc3cccc(C(=O)O)c3)c3ccc(Cl)cc32)cn1` [Compound 1-34, 3-[6-Chloro-2-methyl-1-(6-methyl-pyridin-3-yl)-1H-indol-3-ylsulfanyl]-benzoic acid], the IC50 was below 300 nM. Then `Cc1c(Sc2cccc(C(=O)O)c2)c2ccc(Cl)cc2n1-c1cccc(-c2ccccc2)c1` [Compound 1-28, 3-(1-Biphenyl-3-yl-6-chloro-2-methyl-1H-indol-3-ylsulfanyl)-benzoic acid], with 300 to 1000 nM.

On to `CCCn1cc(-n2c(C)c(Sc3ccc(C(F)(F)F)c(CC(=O)O)c3)c3ccc(Cl)c(F)c32)cn1` [Compound 4-14, {5-[6-Chloro-7-fluoro-2-methyl-1-(1-propyl-1H-pyrazol-4-yl)-1H-indol-3-ylsulfanyl]-2-trifluoromethyl-phenyl}-acetic acid], for which the half-inhibitory concentration (IC50) was below 300 nM. Then `Cc1cncc(-n2c(C)c(Sc3cccc(C(=O)O)c3)c3ccc(Cl)cc32)c1` [Compound 1-56, 3-[6-Chloro-2-methyl-1-(5-methyl-pyridin-3-yl)-1H-indol-3-ylsulfanyl]-benzoic acid], with below 300 nM. Then `COc1ccc(C(=O)O)cc1Sc1c(C)n(-c2cccnc2)c2cc(Cl)ccc12` [Compound 1-40, 3-(6-Chloro-2-methyl-1-pyridin-3-yl-1H-indol-3-ylsulfanyl)-4-methoxy-benzoic acid], with above 1000 nM. For the compound `CCn1cc(-n2c(C)c(Sc3cccc(C(=O)O)c3F)c3ccc(Cl)cc32)cn1` [Compound 1-67, 3-[6-Chloro-2-methyl-1-(1-ethyl-1H-pyrazol-4-yl)-1H-indol-3-ylsulfanyl]-2-fluoro-benzoic acid], the half-maximal inhibitory concentration (IC50) was below 300 nM. Then `Cc1c(Sc2cccc(C(=O)O)c2)c2ccc(Cl)cc2n1-c1ccc(-c2ccccc2)cc1` [Compound 1-27, 3-(1-Biphenyl-4-yl-6-chloro-2-methyl-1H-indol-3-ylsulfanyl)-benzoic acid], with 300 to 1000 nM; and `Cc1c(Sc2cccc(C(=O)O)c2)c2ccc(Cl)c(F)c2n1-c1cnn(C)c1` [Compound 3-57, 3-[6-Chloro-7-fluoro-2-methyl-1-(1-methyl-1H-pyrazol-4-yl)-1H-indol-3-ylsulfanyl]-benzoic acid], with below 300 nM; and `CCCCn1cc(-n2c(C)c(Sc3cccc(C(=O)O)c3)c3ccc(Cl)cc32)cn1` [Compound 1-72, 3-[1-(1-Butyl-1H-pyrazol-4-yl)-6-chloro-2-methyl-1H-indol-3-ylsulfanyl]-benzoic acid], with below 300 nM.

Turning to `Cc1c(Sc2cc(C(=O)O)cc(C(F)(F)F)c2)c2ccc(Cl)cc2n1-c1cccnc1` [Compound 1-46, 3-(6-Chloro-2-methyl-1-pyridin-3-yl-1H-indol-3-ylsulfanyl)-5-trifluoromethyl-benzoic acid], the 50% inhibitory concentration (IC50) was above 1000 nM. Then `COc1cccc2[nH]c(C)c(Sc3cccc(CC(=O)O)c3)c12` [Compound 3-6, [3-(4-Methoxy-2-methyl-1H-indol-3-ylsulfanyl)-phenyl]-acetic acid], with above 1000 nM; and `O=C(O)c1cccc(Sc2c(C(F)(F)F)n(Cc3ccccc3)c3cc(Cl)ccc23)c1` [Compound 3-13, 3-(1-Benzyl-6-chloro-2-trifluoromethyl-1H-indol-3-ylsulfanyl)-benzoic acid], with above 1000 nM; and `Cc1c(Sc2cccc(C(=O)O)c2)c2ccc(Cl)cc2n1Cc1cccnc1` [Compound 1-21, 3-(6-Chloro-2-methyl-1-pyridin-3-ylmethyl-1H-indol-3-ylsulfanyl)-benzoic acid], with below 300 nM. For the compound `CCCn1cc(-n2c(C)c(Sc3cccc(CC(=O)O)c3)c3ccc(Cl)c(F)c32)cn1` [Compound 3-37, {3-[6-chloro-7-fluoro-2-methyl-1-(1-propyl-1H-pyrazol-4-yl)-1H-indol-3-ylsulfanyl]-phenyl}-acetic acid], the IC50 was below 300 nM. For `CCn1cc(-n2c(C)c(Sc3cccc(C(=O)NS(=O)(=O)c4ccccc4)c3F)c3ccc(Cl)c(F)c32)cn1` [Compound 4-7, N-{3-[6-Chloro-1-(1-ethyl-1H-pyrazol-4-yl)-7-fluoro-2-methyl-1H-indol-3-ylsulfanyl]-2-fluoro-benzoyl}-benzenesulfonamide], the concentration for half-maximal inhibition (IC50) was below 300 nM. Then `CCn1cc(-n2c(C)c(Sc3ccc(C)c(C(=O)O)c3)c3ccc(Cl)c(F)c32)cn1` [Compound 4-9, 5-[6-Chloro-1-(1-ethyl-1H-pyrazol-4-yl)-7-fluoro-2-methyl-1H-indol-3-ylsulfanyl]-2-methyl-benzoic acid], with below 300 nM; and `CCn1cc(-n2c(C)c(Sc3cccc(CC(=O)O)c3)c3ccc(Cl)cc32)cn1` [Compound 1-69, {3-[6-Chloro-1-(1-ethyl-1H-pyrazol-4-yl)-2-methyl-1H-indol-3-ylsulfanyl]-phenyl}-acetic acid], with below 300 nM.
